The values that follow come from US20200164038A1, “MODIFIED NUCLEOSIDE, NUCLEOTIDE, AND NUCLEIC ACID COMPOSITIONS” (ModernaTX, Inc., priority 2011, published 2020).

For one data set, the system named is TNF-alpha. In words: Chemical modification ranges, modified RNA transfected in PBMC, TNF-alpha ELISA. It is filed as cell-based, human. How it is done: (§1) The supernatant was harvested and run by ELISA 22 hours after transfection to determine the protein expression.
For orientation: ELISA stands for enzyme-linked immunosorbent assay.

Data set [1] concerns Human primary foreskin fibroblasts (BJ fibroblasts). The experiment in a line: Innate immune response transcripts in BJ fibroblasts, single transfection (qPCR). It counts as cell-based. As to conditions: 250 ng, 18 hours. The source says: Control samples of poly I:C.
In general terms: Real-time PCR tracks product formation cycle by cycle.

The test system of the next data set is IFN-alpha. The experiment in a line: Chemical modification ranges, modified RNA transfected in PBMC, IFN-alpha ELISA. It is filed as cell-based, human. How it is done:
960 ng of G-CSF mRNA modified with 5-methylcytosine (5mC) and pseudouridine (pseudoU) or unmodified G-CSF mRNA was transfected with 0.8 uL of Lipofectamine 2000 into peripheral blood mononuclear cells (PBMC) from three normal blood donors (D1, D2, D3). […] The supernatant was harvested and run by ELISA 22 hours after transfection to determine the protein expression. The expression of IFN-alpha and TNF-alpha may be a secondary effect from the transfection of the G-CSF mRNA.

Data set [2] has as its system peripheral blood mononuclear cells (PBMC). The experiment in a line: In vitro PBMC study, percent modification: IFN-alpha and TNF-alpha by ELISA, PC ratio. It counts as cell-based, human. As for the experimental part: as §1
A further data set has as its system HEK293 cells. In words: In vitro expression of VEGF modified mRNA (ELISA). It is filed as cell-based.
Data set [3] is described as follows: Split dose study IM, serum human EPO, product per unit drug and dose splitting factor. It is filed as in vivo, mice. How it is done:
The dosing vehicle (F. buffer) consisted of 150 mM NaCl, 2 mM CaCl2, 2 mM Na^+-phosphate (1.4 mM monobasic sodium phosphate; 0.6 mM dibasic sodium phosphate), and 0.5 mM EDTA, pH 6.5. The pH was adjusted using sodium hydroxide and the final solution was filter sterilized.
Animals (n=5) were injected IM (intramuscular) for the single unit dose of 100 ug. For multi-dosing, two schedules were used, 3 doses of 100 ug and 6 doses of 100 ug. For the split dosing scheme, two schedules were used, 3 doses at 33.3 ug and 6 doses of 16.5 ug mmRNA. Control dosing involved use of buffer only at 6 doses. […] Blood and muscle tissue were evaluated 13 hrs post injection.
Human EPO protein was measured in mouse serum 13 h post I.M. single, multi- or split dosing of the EPO mmRNA in buffer. Seven groups of mice (n=5 mice per group) were treated and evaluated.
The splitting factor is defined as the product per unit drug divided by the single dose product per unit drug (PUD) For example for treatment group 2 the value 0.28 or product (EPO) per unit drug (mmRNA) is divided by the single dose product per unit drug of 0.14. The result is 2. Likewise, for treatment group 4, the value 1.1 or product (EPO) per unit drug (mmRNA) is divided by the single dose product per unit drug of 0.14. The result is 7.9. Consequently, the dose splitting factor (DSF) may be used as an indicator of the efficacy of a split dose regimen. For any single administration of a total daily dose, the DSF should be equal to 1. Therefore any DSF greater than this value in a split dose regimen is an indication of increased efficacy.

A short description of data set [4]: Stability of modified RNA on storage (gel electrophoresis). It is filed as physicochemical. As for the experimental part:
Stability experiments were conducted to obtain a better understanding of storage conditions to retain the integrity of modified RNA. […] 40° C. 37° C. 25° C. 4° C. or −20° C. After the mRNA had been stored for 0 hours, 2 hours, 6 hours, 24 hours, 48 hours, 5 days and 14 days, the mRNA was analyzed by gel electrophoresis using a Bio-Rad EXPERION™ system. The modified, unmodified and lipoplexed G-CSF mRNA was also stored in RNASTABLE® (Biomatrica, Inc. San Diego, Calif.) at 40° C. or water at −80° C. or 40° C. for 35 days before being analyzed by gel electrophoresis.
mRNA samples stored at 4° C. 25° C. and 37° C. were stored in 1×TE buffer or the formulation buffer (150 mM sodium chloride, 2 mM calcium chloride, 2 mM phosphate, 0.5 mM EDTA at a pH of 6.5). The mRNA stored at 4° C. was stable to at least 60 days in both the TE and formulation buffer. At 25° C. the mRNA in formulation buffer was stable out to 14 days and the TE buffer was stable out to at least 6 days. Storage of mRNA in the formulation buffer at 37° C. was stable to 6 days compared to the TE buffer which was stable only until 4 days.

The mark [5] stands for this setting: group 1: 1 × 100 ug, total dose 100 ug.
Where [6] appears, read: group 2: 3 × 100 ug, total dose 300 ug.
[7] abbreviates: group 3: 3 × 33.3 ug, total dose 600 ug.
The mark [8] stands for this setting: group 4: 3 × 33.3 ug, total dose 100 ug.
Setting [9] is: group 5: 6 × 16.5 ug, total dose 100 ug.

Take poly I:C [P(I)P(C)]: the “TNF-alpha Expression” value with TNF-alpha (PBMC donor D1) turned out to be 61.2 pg/mL. Also, the “TNF-alpha Expression” value in the data set on TNF-alpha (PBMC donor D2) worked out at 4.4 pg/mL. The “TNF-alpha Expression” value in the data set with TNF-alpha (PBMC donor D3) came to 69.1 pg/mL. In addition, in data set [1], the AIM2 transcript level is 0.100 fold-induction relative to HPRT, the IFIT-1 transcript level is recorded as 71.914 fold-induction relative to HPRT, the IFNa transcript level is listed as 0.063 fold-induction relative to HPRT and the IFNb transcript level is recorded as 1.523 fold-induction relative to HPRT. In addition, in data set [1], the IL6 transcript level is 2.8 fold-induction relative to HPRT, the OAS-1 transcript level is reported as 8.628 fold-induction relative to HPRT, the PKR transcript level is 10.326 fold-induction relative to HPRT and the RIG-I transcript level is 30.0 fold-induction relative to HPRT. The TNFa transcript level in data set [1] is reported as 0.264 fold-induction relative to HPRT. Also, the “IFN-alpha Expression” value in the data set on IFN-alpha (PBMC donor D1) was 1498.1 pg/mL. Moreover, the “IFN-alpha Expression” value in the data set with IFN-alpha (PBMC donor D2) is 216.8 pg/mL. The “IFN-alpha Expression” value with IFN-alpha (PBMC donor D3) came out at 238.8 pg/mL. Moreover, in data set [2] (donor D1, 22 hours), the “IFN-alpha Expression” value was 130.8 pg/mL and the “TNF-alpha Expression” value was determined as 765.8 pg/mL. In data set [2] (donor D2, 22 hours), the “IFN-alpha Expression” value was 297.1 pg/mL and the “TNF-alpha Expression” value turned out to be 2362.7 pg/mL. In data set [2] (donor D3, 22 hours), the “IFN-alpha Expression” value stood at 585.2 pg/mL and the “TNF-alpha Expression” value was found to be 420.4 pg/mL.

B1: VEGF-A: modified mRNA VEGF-A SEQ ID NO 19, Cap1, fully modified with 5-methylcytosine and pseudouridine, complexed with Lipofectamine2000 (nucleic acid, listed as Homo sapiens)
chain: GGGAAAUAAGAGAGAAAAGAAGAGUAAGAAGAAAUAUAAGAGCCACCAUGAACUUUCUCUUGUCAUGGGUGCACUGGAGCCUUGCGCUGCUGCUGUAUCUUCAUCACGCUAAGUGGAGCCAGGCCGCACCCAUGGCGGAGGGUGGCGGACAGAAUCACCACGAAGUAGUCAAAUUCAUGGACGUGUACCAGAGGUCGUAUUGCCAUCCGAUUGAAACUCUUGUGGAUAUCUUUCAAGAAUACCCCGAUGAAAUCGAGUACAUUUUCAAACCGUCGUGUGUCCCUCUCAUGAGGUGCGGGGGAUGCUGCAAUGAUGAAGGGUUGGAGUGUGUCCCCACGGAGGAGUCGAAUAUCACAAUGCAAAUCAUGCGCAUCAAACCACAUCAGGGUCAGCAUAUUGGAGAGAUGUCCUUUCUCCAGCACAACAAAUGUGAGUGUAGACCGAAGAAGGACCGAGCCCGACAGGAAAACCCAUGCGGACCGUGCUCCGAGCGGCGCAAACACUUGUUCGUACAAGACCCCCAGACAUGCAAGUGCUCAUGUAAGAAUACCGAUUCGCGGUGUAAGGCGAGACAGCUGGAAUUGAACGAGCGCACGUGUAGGUGCGACAAGCCUAGACGGUGAGCUGCCUUCUGCGGGGCUUGCCUUCUGGCCAUGCCCUUCUUCUCUCCCUUGCACCUGUACCUCUUGGUCUUUGAAUAAAGCCUGAGUAGGAAG
modifications: Cap1, polyA tail, 5mC/pseudoU, Lipofectamine2000 complex
Consider B1, for which the Protein with HEK293 cells (2 pg transfected), with HEK293 cells (10 pg transfected), with HEK293 cells (39 pg transfected) and in the data set on HEK293 cells (610 fg transfected) was 0 pg/mL each time.

B2: Human EPO mmRNA (nucleic acid, listed as Homo sapiens)
sense: GGGAAAUAAGAGAGAAAAGAAGAGUAAGAAGAAAUAUAAGAGCCACCAUGGGAGUGCACGAGUGUCCCGCGUGGUUGUGGUUGCUGCUGUCGCUCUUGAGCCUCCCACUGGGACUGCCUGUGCUGGGGGCACCACCCAGAUUGAUCUGCGACUCACGGGUACUUGAGAGGUACCUUCUUGAAGCCAAAGAAGCCGAAAACAUCACAACCGGAUGCGCCGAGCACUGCUCCCUCAAUGAGAACAUUACUGUACCGGAUACAAAGGUCAAUUUCUAUGCAUGGAAGAGAAUGGAAGUAGGACAGCAGGCCGUCGAAGUGUGGCAGGGGCUCGCGCUUUUGUCGGAGGCGGUGUUGCGGGGUCAGGCCCUCCUCGUCAACUCAUCACAGCCGUGGGAGCCCCUCCAACUUCAUGUCGAUAAAGCGGUGUCGGGGCUCCGCAGCUUGACGACGUUGCUUCGGGCUCUGGGCGCACAAAAGGAGGCUAUUUCGCCGCCUGACGCGGCCUCCGCGGCACCCCUCCGAACGAUCACCGCGGACACGUUUAGGAAGCUUUUUAGAGUGUACAGCAAUUUCCUCCGCGGAAAGCUGAAAUUGUAUACUGGUGAAGCGUGUAGGACAGGGGAUCGCUGAUAAGCUGCCUUCUGCGGGGCUUGCCUUCUGGCCAUGCCCUUCUUCUCUCCCUUGCACCUGUACCUCUUGGUCUUUGAAUAAAGCCUGAGUAGGAAG
modifications: 5' Cap1, polyA tail ~160 nt
With B2, the “Dose Splitting Factor” value in data set [3] (setting [5]) was 1; in data set [3] (setting [6]), 2; in data set [3] (setting [7]), 3.3; in data set [3] (setting [8]), 7.9; in data set [3] (setting [9]) it was 9.3. Besides, the “Polypeptide per unit drug” value was 0.14 pmol/µg in data set [3] (setting [5]); 0.28 pmol/µg in data set [3] (setting [6]); 0.46 pmol/µg in data set [3] (setting [7]); 1.1 pmol/µg in data set [3] (setting [8]); 1.3 pmol/µg in data set [3] (setting [9]).

B3: G-CSF unmodified: unmodified G-CSF mRNA SEQ ID NO 6, Cap1 (nucleic acid, listed as Homo sapiens)
chain: GGGAAAUAAGAGAGAAAAGAAGAGUAAGAAGAAAUAUAAGAGCCACCAUGGCCGGUCCCGCGACCCAAAGCCCCAUGAAACUUAUGGCCCUGCAGUUGCUGCUUUGGCACUCGGCCCUCUGGACAGUCCAAGAAGCGACUCCUCUCGGACCUGCCUCAUCGUUGCCGCAGUCAUUCCUUUUGAAGUGUCUGGAGCAGGUGCGAAAGAUUCAGGGCGAUGGAGCCGCACUCCAAGAGAAGCUCUGCGCGACAUACAAACUUUGCCAUCCCGAGGAGCUCGUACUGCUCGGGCACAGCUUGGGGAUUCCCUGGGCUCCUCUCUCGUCCUGUCCGUCGCAGGCUUUGCAGUUGGCAGGGUGCCUUUCCCAGCUCCACUCCGGUUUGUUCUUGUAUCAGGGACUGCUGCAAGCCCUUGAGGGAAUCUCGCCAGAAUUGGGCCCGACGCUGGACACGUUGCAGCUCGACGUGGCGGAUUUCGCAACAACCAUCUGGCAGCAGAUGGAGGAACUGGGGAUGGCACCCGCGCUGCAGCCCACGCAGGGGGCAAUGCCGGCCUUUGCGUCCGCGUUUCAGCGCAGGGCGGGUGGAGUCCUCGUAGCGAGCCACCUUCAAUCAUUUUUGGAAGUCUCGUACCGGGUGCUGAGACAUCUUGCGCAGCCGUGAAGCGCUGCCUUCUGCGGGGCUUGCCUUCUGGCCAUGCCCUUCUUCUCUCCCUUGCACCUGUACCUCUUGGUCUUUGAAUAAAGCCUGAGUAGGAAG
modifications: Cap1
For the molecule B3, the entries for the “stable out to” value in data set [4] (stored at 25° C.), in data set [4] (stored at 37° C.) and in data set [4] (stored at 50° C.) were 48 h, 6 h and 2 h, respectively.
